According to patent publication US20120172344A1, “INSULIN-PRODUCING CELL INDUCER, GLUCOSE INTAKE ENHANCER, AND THERAPEUTIC AGENT FOR DIABETES OR DIABETES COMPLICATIONS” (KYUSHU UNIVERSITY, NATIONAL UNIVERSITY CORPORATION, priority 2009, published 2012):

What was measured:
[1] = system: Tg23 mice (diabetic nephropathy); assay: Experimental Example 2: effect of estradiol on second to third stage of diabetic nephropathy; format: in vivo, mouse
Protocol: (a) Albumin concentration: Albuwellkit (Exocell),
(b) Creatinine: High-performance liquid chromatography (HPLC), and
(c) Creatinine clearance (Ccr): calculated by the next formula.
Ccr=urine creatinine (mg/dL)×urine volume (μL/min)/serum creatinine (mg/dL)/body weight (g). [Math. 1]
50 glomeruli were analyzed for each of the mice. The total area of the glomeruli was measured in PAS-stained sections using Image-Pro Plus (Media Cybernetics). The PAS-positive area fraction was calculated as the ratio of PAS-positive area to glomerular sectional surface area. Glomerular number was measured by counting all of the glomeruli per mid-transverse section of left kidney for each of the mice.
For Tg23 mice, at 20-35 weeks of age, which is when reduction in renal functions and renal lesions are observed, a single pellet of 17β-estradiol was subcutaneously administered, and the effect of estradiol was investigated. […]
PAS staining, and immunostaining using the anti-collagen type IV antibody were performed on glomerular tissues from each of the mice (48 weeks of age), and the results of the staining are shown respectively in FIG. 2(1) and FIG. 2(2). […] The expression intensity was measured in random fields (n=30/section) of the glomerulus, and the result was expressed as average pixel intensity.

[2] = system: Tg23 mice (ICERIγ transgenic diabetes model mice); assay: Experimental Example 1: effect of estradiol administration on blood glucose and insulin-producing cells in diabetes model mice; format: in vivo, mouse
Protocol: Blood glucose levels were measured by an enzyme-electrode method with ONE TOUCH UltraVue (Johnson & Johnson K.K.) on whole blood taken from tail veins of subject animals.
Pancreases were fixed in 10% formalin, embedded in paraffin, and sliced into sections having a thickness of 2 μm. The sections were immunostained with overnight incubation at 4° C. in dilution solutions containing various primary antibodies described below.
Primary antibodies: Anti-insulin antibody (dilution rate 1:500; DAKO), anti-glucagon antibody (dilution rate 1:500; Linco Research Inc.), anti-DBA antibody (dilution rate 1:300; Vector Laboratories), anti-Pdx-1 antibody (dilution rate 1:1000; kindly provided by Chris V. E. Wright, Vanderbilt University), anti-collagen type IV antibody (dilution rate 1:250; PROGEN Biotechnik), and anti-Glut 4 antibody (dilution rate 1:1000; Chemicon).
The primary antibodies were detected by immunofluorescence labeling using secondary antibodies conjugated with Alexa 488 or Alexa 568 (1:200; Molecular Probes); third antibody conjugated with biotin-labeled secondary antibodies and streptavidin Alexa 488 or Alexa 568 (1:800; Vector Laboratories); or by an immunoperoxidase staining method using biotin-labeled secondary antibodies. Staining was visualized with diaminobenzidine. The sections were counterstained with hematoxylin. Images were captured on a BZ9000 microscope (Keyence), or in the confocal mode on an LSM 510 META confocal microscope (Carl Zeiss). Immunofluorescence intensity was measured in random fields (n=30/section) using LSM Zeiss software, and the result was expressed as average pixel intensity.
ICERIγ transgenic mice (male) were generated from a pure line C57BL/6J (Japan SLC, Inc.) in accordance with the method described in Example 1 of Patent Literature 1 (WO2004/072282). […]
Tg23 mice (11 weeks of age) were divided into two groups: an estradiol administration group (n=24), and a control group (n=57). […] Then, body weight and blood glucose levels of the Tg mice and wild-type mice (WT) (n=81) were monitored every week, and the mice were dissected after 43 weeks. […]

C[C@]12CC[C@@H]3c4ccc(O)cc4CC[C@H]3[C@@H]1CC[C@@H]2O [estradiol, 17β-estradiol]
sclerosis of the glomeruli (PAS staining, collagen IV immunostaining) ([1]; Tg23 mice treated at 24 weeks of age (Tx + single 17β-estradiol pellet s.c.), tissues at 48 weeks of age): alleviated to a degree not different from wild-type mice | renal functions and renal tissues (GFR, Ualb/Cr, kidney weight, urinary glucose, urine volume) ([1]; Tg23 mice, second stage of diabetic nephropathy (early nephropathia stage), Tx + single 17β-estradiol pellet s.c.): dramatically improves | blood glucose levels ([2]; Tg23 mice 11 weeks of age, testectomy (Tx) + single 17β-estradiol pellet s.c. (0.72 mg/pellet, 90-day release), vs wild-type mice): lowered to the same levels of normal mice | persistence of lowered blood glucose levels ([2]; Tx+E group, Tg23 mice): maintained until death | insulin-producing cells in pancreatic duct epithelium cells of the pancreas ([2]; Tx+E group, anti-insulin immunostaining, 1 week after estradiol administration): induced
